Data: ChEMBL document CHEMBL1821683, “Synthesis of rhodamine B-benzenesulfonamide conjugates and their inhibitory activity against human α- and bacterial/fungal β-carbonic anhydrases” (Bioorg Med Chem Lett, 2011)

What was measured:
[1] = biological target: Carbonic anhydrase 2 (Homo sapiens, UniProt P00918); test: Inhibition of human carbonic anhydrase 2 preincubated for 15 mins at pH 7.5 by stopped flow CO2 hydration method
[2] = biological target: Carbonic anhydrase 12 (Homo sapiens, UniProt O43570); test: Inhibition of human carbonic anhydrase 12 preincubated for 15 mins at pH 7.5 by stopped flow CO2 hydration method
Chain of Carbonic anhydrase 12 (O43570 whole entry): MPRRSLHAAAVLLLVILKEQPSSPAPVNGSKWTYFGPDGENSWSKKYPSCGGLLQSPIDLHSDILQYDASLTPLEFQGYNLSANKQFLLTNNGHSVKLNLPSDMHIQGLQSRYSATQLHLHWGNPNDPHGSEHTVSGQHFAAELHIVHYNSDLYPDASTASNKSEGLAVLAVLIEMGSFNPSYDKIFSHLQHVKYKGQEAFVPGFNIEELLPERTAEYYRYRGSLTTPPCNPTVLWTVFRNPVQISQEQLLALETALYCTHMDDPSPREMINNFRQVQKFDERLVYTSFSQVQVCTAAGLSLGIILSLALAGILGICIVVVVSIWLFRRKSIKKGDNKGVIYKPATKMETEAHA

[3] = biological target: Carbonic anhydrase 1 (Homo sapiens, UniProt P00915)
Chain of Carbonic anhydrase 1 (P00915 whole entry): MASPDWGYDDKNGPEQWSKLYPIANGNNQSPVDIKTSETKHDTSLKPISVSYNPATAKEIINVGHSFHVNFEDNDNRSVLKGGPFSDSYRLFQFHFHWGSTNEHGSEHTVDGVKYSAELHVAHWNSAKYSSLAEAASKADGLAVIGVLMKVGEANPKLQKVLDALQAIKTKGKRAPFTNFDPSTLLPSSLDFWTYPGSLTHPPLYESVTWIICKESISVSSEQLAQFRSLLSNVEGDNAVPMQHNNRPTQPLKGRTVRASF

[4] = biological target: Carbonic anhydrase 7 (Homo sapiens, UniProt P43166)
Chain of Carbonic anhydrase 7 (P43166 whole entry): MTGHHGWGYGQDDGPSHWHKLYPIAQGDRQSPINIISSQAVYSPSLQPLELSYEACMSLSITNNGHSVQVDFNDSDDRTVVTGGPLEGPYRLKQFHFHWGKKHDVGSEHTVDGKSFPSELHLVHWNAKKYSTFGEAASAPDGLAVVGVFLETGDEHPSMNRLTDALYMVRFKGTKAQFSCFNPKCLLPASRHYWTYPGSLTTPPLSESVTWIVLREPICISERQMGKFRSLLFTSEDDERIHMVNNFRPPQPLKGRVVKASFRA

[5] = biological target: T1, Carbonic anhydrase (Candida albicans (strain SC5314 / ATCC MYA-2876) (Yeast), UniProt Q5AJ71)
T1 sequence (Q5AJ71 whole entry): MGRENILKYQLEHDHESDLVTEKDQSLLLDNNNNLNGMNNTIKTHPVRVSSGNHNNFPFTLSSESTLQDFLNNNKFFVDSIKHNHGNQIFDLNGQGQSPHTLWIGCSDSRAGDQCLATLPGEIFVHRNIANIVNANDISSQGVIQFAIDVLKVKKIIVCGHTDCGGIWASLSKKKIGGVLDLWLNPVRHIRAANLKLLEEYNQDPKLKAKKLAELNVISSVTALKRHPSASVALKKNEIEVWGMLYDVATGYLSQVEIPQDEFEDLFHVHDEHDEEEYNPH

[6] = biological target: Carbonic anhydrase 9 (Homo sapiens, UniProt Q16790)

SMILES | Ki [1] | Ki [2] | Ki [3] | Ki [4] | Ki [5] | Ki [6]
CCN(CC)c1ccc2c(c1)Oc1cc(N(CC)CC)ccc1C21c2ccccc2C(=O)N1c1ccc(S(N)(=O)=O)cc1 | 279 nM | 9.1 nM | 512 nM | 60.2 nM | 4990 nM | 
CCN(CC)c1ccc2c(c1)Oc1cc(N(CC)CC)ccc1C21c2ccccc2C(=O)N1c1cccc(S(N)(=O)=O)c1 | 21.5 nM | 10.5 nM | 311 nM | 12.1 nM | 4100 nM | 24 nM
CCN(CC)c1ccc2c(c1)Oc1cc(N(CC)CC)ccc1C21c2ccccc2C(=O)N1Cc1ccc(S(N)(=O)=O)cc1 | 980 nM | 8.6 nM | 714 nM | 34.9 nM | 5320 nM | 10.2 nM
CCN(CC)c1ccc2c(c1)Oc1cc(N(CC)CC)ccc1C21c2ccccc2C(=O)N1CCc1ccc(S(N)(=O)=O)cc1 | 955 nM | 25.3 nM | 692 nM | 91.7 nM | 4730 nM | 19.4 nM
